The record followed here is US20110212078A1, “SYNTHESIS AND USE OF HETEROCYCLIC ANTIBACTERIAL AGENTS” (priority 2008, published 2011).

A word on the IC50: it is the concentration at which inhibition is half-maximal.

The assay deals with T1, LpxC enzyme (Escherichia coli, UniProt P0A725).
T1 sequence (P0A725 1-305): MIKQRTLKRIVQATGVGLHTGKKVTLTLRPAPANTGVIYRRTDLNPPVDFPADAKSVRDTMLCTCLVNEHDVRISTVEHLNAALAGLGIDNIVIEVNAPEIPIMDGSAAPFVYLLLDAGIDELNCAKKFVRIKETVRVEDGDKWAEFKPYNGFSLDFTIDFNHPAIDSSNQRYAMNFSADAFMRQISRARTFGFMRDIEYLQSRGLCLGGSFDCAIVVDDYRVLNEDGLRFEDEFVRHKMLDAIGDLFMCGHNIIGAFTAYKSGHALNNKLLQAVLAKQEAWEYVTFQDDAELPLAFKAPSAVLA
In words: standard LpxC assay (RapidFire high-throughput mass spectrometry). It is filed as biochemical. Conditions: 0.2 nM LpxC enzyme, 1.0 μM UDP-3-O-(R-3-hydroxymyristoyl)-N-acetylglucosamine, 60 minutes at room temperature; read-out: E. coli IC50. As for the experimental part: The standard LpxC assay consists of 0.2 nM LpxC enzyme, 1.0 μM UDP-3-O—(R-3-hydroxymyristoyl)-N-acetylglucosamine, and test compound, in assay buffer and 2% DMSO. Assay buffer is comprised of 25 mM HEPES, pH 7.3, 150 mM NaCl, 2.0 mM DTT, and 0.01% BSA. The enzyme reaction is carried out in a 96-well assay plate, in a final volume of […]. Solutions of test compounds are prepared in 100% DMSO. Reaction additions, in order, are (1) 2.0 μL compound solution, (2) 80 μL of assay buffer, (3) […] of 10 μM UDP-3-O—(R-3-hydroxymyristoyl)-N-acetylglucosamine (in assay buffer) and, (4) 10 μL of LpxC enzyme (20 nM in assay buffer) to initiate the reaction. In positive control reactions, addition (1) has 2.0 μL of 100% DMSO (without compound); these reactions are used as the total signal (TSB) value. Reactions are incubated at room temperature for 60 minutes when 10 μL of 1 N HCl is added to stop the reaction. The plate is shaken by hand for 10 seconds to ensure complete quenching. Assay plates are sealed with foil tape, and stored at −80° C. for 24-48 hr prior to analysis.
The concentrations of substrate and product in the reaction mixtures are determined with BioTrove's proprietary RapidFire™ high-throughput mass spectrometry (HTMS). Assay mixtures are partially purified with reverse phase chromatography, where they are washed with water containing 5 mM ammonium formate and eluted onto the mass spectrometer in 80% acetonitrile, 20% water, and 5 mM ammonium formate. The mass spectrometry peak areas of the substrate and product are measured to determine the concentration of these analytes. The assay signal is the percentage of substrate that is converted to product. Percent inhibition, % I, in test samples is determined from the following equation: […]
Using this method, the following E. coli IC50 (nM) data were obtained for selected Compounds of Formula (I);
For the compound `C[C@@H](O)[C@@H](C(=O)NO)N1Cc2ccc(Cl)cc2C1=O` [Compound 21], the IC50 was below 5 µM.

Consider `C[C@@H](O)[C@@H](C(=O)NO)N1Cc2cc(-c3ccc(C#Cc4ccccc4)cc3)ccc2C1=O` [Compound 36], for which the IC50 was below 0.05 µM.

On to `C[C@@H](O)[C@@H](C(=O)NO)N1Cc2cc(C#Cc3ccc(-c4ccccc4)cc3)ccc2C1=O` [Compound 13], for which the half-inhibitory concentration (IC50) is below 0.05 µM.

As for `C[C@@H](O)[C@@H](C(=O)NO)N1Cc2cc(-c3ccccc3)ccc2C1=O` [Compound 26], the IC50 is below 5 µM.

In the case of `C[C@@H](O)[C@@H](C(=O)NO)N1Cc2cc(Cc3ccc(-c4ccccc4)cc3)ccc2C1=O` [Compound 31], the half-inhibitory concentration (IC50) is below 0.05 µM.

Take `CC(O)C(C(=O)NO)N1C(=O)c2ccc(-c3ccccc3)cc2C1=O` (stereo not shown) [Compound 79]: the 50% inhibitory concentration (IC50) is below 5 µM.

`CC(O)C(C(=O)NO)n1[nH]c2cc(C#Cc3ccccc3)ccc2c1=O` (stereo not shown) [Compound 65]: the IC50 was below 5 µM.

With `C[C@@H](O)[C@@H](C(=O)NO)N1CC2CN(c3ccc(C#Cc4ccccc4)cc3)CCN2C1=O` (stereo partly shown) [Compound 91], the IC50 is below 5 µM.

For the compound `C[C@@H](O)[C@@H](C(=O)NO)N1Cc2cc(C#Cc3ccccc3)ccc2C1=O` [Compound 11], the half-maximal inhibitory concentration (IC50) was below 5 µM.

In the case of `C[C@@H](O)[C@@H](C(=O)NO)N1Cc2cc(Br)ccc2C1=O` [Compound 12], the 50% inhibitory concentration (IC50) is below 5 µM.

In the case of `C[C@@H](O)[C@@H](C(=O)NO)N1Cc2cc(N3CCN(c4ccc(C(=O)Cc5ccccc5)cc4)CC3)ccc2C1=O` [Compound 50], the IC50 was below 5 µM.

As to `C[C@@H](O)[C@@H](C(=O)NO)N1Cc2cc(N3CCN(c4ccccc4)CC3)ccc2C1=O` [Compound 52], the IC50 was below 5 µM.

Consider `C[C@@H](O)[C@@H](C(=O)NO)N1Cc2cc(N3CCC(c4ccc(-c5ccccc5)cc4)CC3)ccc2C1=O` [Compound 53], for which the IC50 is below 5 µM.

For `C[C@@H](O)[C@@H](C(=O)NO)N1Cc2cc(-c3ccc(-c4ccccc4)cc3)ccc2C1=O` [Compound 32], the IC50 was below 0.05 µM.

For `C[C@@H](O)[C@@H](C(=O)NO)N1Cc2ccc(C#Cc3ccccc3)cc2C1=O` [Compound 20], the IC50 is below 5 µM.

For the compound `CC(O)C(C(=O)NO)N1C(=O)c2ccc(Br)cc2C1=O` (stereo not shown) [Compound 80], the IC50 is below 5 µM.

On to `C[C@@H](O)[C@@H](C(=O)NO)N1CC2CN(Cc3ccc(C#Cc4ccccc4)cc3)CCN2C1=O` (stereo partly shown) [Compound 88], for which the IC50 is below 5 µM.

Take `C[C@@H](O)[C@@H](C(=O)NO)N1Cc2cc(C#Cc3cccc(-c4ccccc4)c3)ccc2C1=O` [Compound 14]: the 50% inhibitory concentration (IC50) was below 5 µM.

Turning to `CC(O)C(C(=O)NO)N1C(=O)c2ccc(C#Cc3ccccc3)cc2C1=O` (stereo not shown) [Compound 74], the half-inhibitory concentration (IC50) was below 5 µM.
